Reference: patent US20120077852A1, “HYDROXYPYRIDINONES FOR THE LOCAL TREATMENT OF SKIN MICROCIRCULATORY DISORDERS” (priority 2002, published 2012)

Key:
[1] = Kow distribution coefficient, partition between water and 1-octanol; type: physicochemical; details: distribution coefficient between water and 1-octanol of the hydroxypyridinone HCl addition salt, according Dubbin et al.
Excerpt: A key feature is the hydro-lipophilic property, which basically correlate with its distribution coefficients (“Kow”).

[2] = relative to deferoxamine; cited from earlier work
[3] = Berdoukas et al, Lancet 1993; cited from earlier work
[4] = Kamiyama et al 1981; cited from earlier work

SMILES | Kow [1] | partition coefficient, times that of deferoxamine [2] | cellular uptake versus deferoxamine [3] | lipid peroxidation, hydroxyl radical production, free radical-mediated cell damage [4]
CCc1c(O)c(=O)ccn1CC [Example 12, 1,2-diethyl-3-hydroxy-4-pyridinone] | 1.78 | – | – | –
Cc1c(O)c(=O)ccn1C [Example 1, 1,2-dimethyl-3-hydroxy-4-pyridinone] | 0.17 | 21 times | significantly higher than that of deferoxamine | dramatically decrease
CCc1c(O)c(=O)ccn1C [Example 11, 1-methyl-2-ethyl-3-hydroxy-4-pyridinone] | 0.63 | – | – | –
